This note sets out measurements from PMC10610289, “Novel Baicalein-Derived Inhibitors of Plasmodium falciparum” (Pathogens, 2023).

In data set [1] the test system is Plasmodium falciparum 3D7 (chloroquine-sensitive). Put plainly: Antimalarial assay (IC50 determination), asexual blood stage, SYBR green. In kind it is cell-based. Conditions: for antimalarial activity (in words): P. falciparum 3D7, highest tested concentration 25 µM; for IC50: P. falciparum 3D7, 72 h exposure, read-out: IC50. How it is done:
(§1) Parasite lines used in the study were P. falciparum 3D7 (Pf3D7 Chloroquine-sensitive) and Plasmodium falciparum K1 (PfK1 Chloroquine-resistant) sourced from the Malaria Research and Reference Reagent Resource Center (MR4), ATCC, Manassas, VA, USA. FNDR-10132 was tested against a cross-resistance panel at Swiss TPH, Allschwil, Switzerland.
As per the modified protocol stated by Trager and Jensen, 1976, Plasmodium falciparum parasite lines (Pf3D7 and PfK1) were cultured. Plasmodium strains were maintained in RPMI-1640 medium at 3–5% hematocrit supplemented with 0.2% w/v glucose, 0.5% w/v AlbuMaxII, 0.2% w/v NaHCO3, and 30 μg/mL gentamycin, and, additionally, 15 μM hypoxanthine was added and incubated at 37 °C with 5% O2, 5% CO2, and 90% N2. After 24 h, the medium was changed. After attaining high parasitemia (6–8% mature stage parasite), the culture was sub-passaged with fresh human RBCs.
All tested compounds were dissolved in a DMSO solvent and a prepared stock solution of 10 mM. The reference drug, Chloroquine diphosphate, was dissolved in CRPMI. Working solutions were made from stock solution after diluting in a CRPMI medium during the experiment. The maximum concentration of DMSO used in this study was <1%. It had no parasiticidal effect.
The P. falciparum (0.8–1% parasitemia and 1% hematocrit) synchronous culture was exposed for 72 h (at 37 °C, 5% O2, 5% CO2, and 90% N2) to the serially diluted compound in 96-well plates. A total of 100 µL of RBCs lytic buffer (5 mM EDTA, 20 mM Tris pH 7.5, 0.08% Triton X-100, and 0.008% Saponin) containing the SYBR green 1-X final concentration was distributed to each well and incubated for one hour at room temp in the dark. The plates were read under a fluorescence reader at an excitation of 485 ± 20 nm and emission of 535 ± 25 nm. The IC50 values were calculated based on the DNA content of the parasite relative to its control. An inhibitory concentration of 50% (IC50) was determined using the MS-EXEL template.

Data set [2] is described as follows: Microsomal stability assay. In kind it is in vitro ADME, mouse. Conditions: at 60 min, 1 µM, ß-NADPH, 37 °C. How it is done: Dipotassium hydrogen phosphate, Potassium dihydrogen phosphate, and formic acid were obtained from Merck, Rahway, NJ, USA. Methanol–acetonitrile was procured from Biosolve Chimie, Dieuze, France. Mouse liver microsomes, 20 mg/mL, were received from a third-party vendor in India. Imipramine HCl (catalog no. I0971) and Carbamazepine (catalog no. O0363) were procured from TCI, Gurugram, India. ß-NADPH (product code-99197) was procured from Sisco Research Laboratories, Mumbai, India.
The in vitro metabolic stability was determined in mouse liver microsomes. To prepare a mouse liver microsomes (MLM) homogenate, 100 µL of microsomes was resuspended in 100 mM phosphate buffer (0.607 g K2HPO4 and 0.212 g KH2PO4 dissolved in 50 mL of de-ionized water), achieving a working concentration of 0.625 mg/mL. Positive control (Imipramine) and test compounds (FNDR-10132, 10136, 10139, and 10999) were spiked individually into the MLM homogenate at a final concentration of 1 µm. To pre-incubate, they were placed in a water bath at 37 °C for 5 min. At least 30 µL was collected in triplicates (0 min samples), and the reaction was quenched using 90 µL of acetonitrile, which contained 500 ng/mL of Carbamazepine as an internal standard. Nicotinamide Adenine Dinucleotide Phosphate (NADPH) in phosphate buffer was added to the remaining MLM at a 1 mM final concentration and further incubated at 37 °C. At the indicated time intervals, 30 µL aliquots were sampled in triplicates, and the reaction was quenched with acetonitrile containing Carbamazepine as the internal standard. The samples were centrifugated for 10 min at 13,000 rpm, and the supernatant was separated for further analysis.
The analytical method for microsomal stability and protein binding assay is as follows: Chromatographic elution was achieved following isocratic flow on an X-Terra MS C18 50 × 4.6 mm, 2.5 µm, Waters, USA, maintained at 40 °C. The mobile phase contained aqueous 0.1% formic acid in water in solvent A and acetonitrile acidified with 0.1% formic acid in solvent B delivered at 0.300 mL/min. The flow was 15% from solvent A and 85% from solvent B for 4.5 min. A total of 7 μL of the sample was injected for the assay. […] Detection was performed through multiple reaction monitoring (MRM). The ion transitions are as follows: Imipramine, FNDR-10132, FNDR-10136, FNDR-10139, FNDR-10999, and IS at m/z 281.1→86.0, 355.2→115.1, 354.0→298.0, 350.0→186.1, 349→305.2, and m/z 237.0→194.0, respectively. An optimized cone voltage and collision energy were used to ionize the compounds. The MS parameters follow as follows: cone gas flow 50 (L/h); ion source temperature 150 °C; desolvation gas flow 900 (L/h); desolvation temperature 400 °C; and collision gas flow 0.10 (mL/min).

The subject of data set [3] is Dd2 GNF156 (Pfcarl Ile1139Lys). Put plainly: Cross-resistance panel, Dd2 GNF156. Format: cell-based, Plasmodium falciparum. How it is done:
as §1

A further data set relates to Dd2 (wt). Put plainly: Cross-resistance panel, Dd2 wt. The conditions noted are these: strain Dd2 wt. Format: cell-based, Plasmodium falciparum. How it is done:
as §1

Data set [4] has as its system Dd2 390048 (Pfpi4k S743T). Put plainly: Cross-resistance panel, Dd2 390048. In kind it is cell-based, Plasmodium falciparum. How it is done: as §1
For data set [5], the system named is Dd2 DDD107498 (PfeEF2 Y186N). Briefly: Cross-resistance panel, Dd2 DDD107498. In kind it is cell-based, Plasmodium falciparum. How it is done: as §1
Another data set concerns Dd2 DSM265 (Pfdhodh). Briefly: Cross-resistance panel, Dd2 DSM265. In kind it is cell-based, Plasmodium falciparum. How it is done: as §1
Data set [6] relates to Dd2 ELQ300 (PfcytB Ile22Leu). Briefly: Cross-resistance panel, Dd2 ELQ300. In kind it is cell-based, Plasmodium falciparum. How it is done:
as §1

The mark [7] stands for this setting: Plasmodium falciparum, 3D7, 72 h.

Where two headings read alike, the source gives them in different places.

For the compound `O=C(O)c1ccc2c(=O)cc(-c3ccc(N4CCCCC4)cc3)oc2c1` [FNDR-11003], the “antimalarial activity (in words)” value in data set [1] is “inactive”. For the same compound, the IC50 (commonly the concentration at which inhibition is half-maximal) in data set [1] (setting [7]) was more than 25 µM.
For `O=C(O)c1ccc2oc(-c3ccc(N4CCCCC4)cc3)cc(=O)c2c1` [FNDR-10139], the IC50 in data set [1] (setting [7]) stood at 4.06 µM. The “Microsomal Stability (Mouse)” value in data set [2] is approximately 29.92 ± 5.46%.
As for `CC1(C)c2nc(-c3ccc(F)cc3)c(Nc3ccc(F)cc3)n2CCN1C(=O)CN` [GNF156, reference compound], the IC50 in data set [3] (Plasmodium falciparum, DD2) was found to be 2.16 µM; with Dd2 (wt) (Plasmodium falciparum), 0.00912 µM. Further, the “Fold shift IC50 rel. Dd2” value turned out to be 237 in data set [3] (strain Dd2 GNF156) and 1.0 with Dd2 (wt).
With `O=C(NCc1cc(=O)c2c(O)c(O)c(O)cc2o1)c1ccc2ccc(Br)cc2c1` [FNDR-10150], the IC50 in data set [1] (setting [7]) is 1.12 µM.
On the same count and under the same terms, for `O=C(CCCCCc1ccccc1)NCc1cc(=O)c2c(O)c(O)c(O)cc2o1` [FNDR-10149] the value was 2.74 µM.
As for `CCN(CC)c1ccc(-c2cc(=O)c3ccc(C(=O)O)cc3o2)cc1` [FNDR-11014], in data set [1], the “antimalarial activity (in words)” value was “inactive”. Besides, the IC50 in data set [1] (setting [7]) is more than 25 µM.
`O=C(CCCc1ccccc1)NCc1cc(=O)c2c(O)c(O)c(O)cc2o1` [FNDR-10143]: in data set [1] (setting [7]), the IC50 amounted to 2.48 µM.
Still for that read-out and setting: for `O=C(O)c1ccc2oc(-c3ccc(N4CCOCC4)cc3)cc(=O)c2c1` [FNDR-10138] the value was 9.65 µM.
Regarding `CS(=O)(=O)c1ccc(-c2cnc(N)c(-c3ccc(C(F)(F)F)nc3)c2)cc1` [MMV390048, reference compound], the IC50 came out at 0.0908 µM in data set [4] (Plasmodium falciparum, DD2) and 0.0185 µM in the data set with Dd2 (wt) (Plasmodium falciparum). The “Fold shift IC50 rel. Dd2” value in data set [4] (strain Dd2 390048) is 4.9; in the data set with Dd2 (wt), 1.0.
Take `O=c1cc(-c2ccccc2)oc2cc(O)c(O)c(O)c12` [baicalein]: the IC50 in data set [1] (setting [7]) stood at 32 µM.
Regarding `CCCCOc1ccc(-c2cc(=O)c3ccc(C(=O)O)cc3o2)cc1` [FNDR-11013], the “antimalarial activity (in words)” value in data set [1] was “inactive”. Moreover, the IC50 in data set [1] (setting [7]) was more than 25 µM.
For `CS(=O)(=O)CCCOc1ccc(-c2cc(=O)c3cc(C(=O)O)ccc3o2)cc1` [FNDR-11096], the “antimalarial activity (in words)” value in data set [1] is reported as “none of the compounds were active”. The IC50 in data set [1] (setting [7]) was more than 25 µM.
For `O=C(O)c1ccc2c(=O)cc(-c3ccc(C4CCCCC4)cc3)oc2c1` [FNDR-11012], in that order: “inactive” and more than 25 µM.
In the same order, the values of `CCCCOc1ccc(-c2cc(=O)c3cc(C(=O)O)ccc3o2)cc1` [FNDR-11000] are “none of the compounds were active” and more than 25 µM.
Consider `O=c1cc(-c2ccc(-c3ccccc3)cc2)oc2cc(O)c(O)c(O)c12` [FNDR-10131], for which the IC50 in data set [1] (setting [7]) amounted to 0.22 µM.
As for `O=c1cc(-c2ccc(N3CCCCC3)cc2)oc2cc(O)c(O)c(O)c12` [FNDR-10136], the IC50 in data set [1] (setting [7]) came out at 0.1 µM. Also, the “Microsomal Stability (Mouse)” value in data set [2] is given as approximately 19.05 ± 1.26%.
Regarding `O=C(O)c1ccc2oc(-c3ccc(C4CCCCC4)cc3)cc(=O)c2c1` [FNDR-10999], the IC50 was 10.1 µM in data set [1] and approximately 10 µM in data set [1] (setting [7]). Further, the “Microsomal Stability (Mouse)” value in data set [2] was approximately 32.19 ± 0.29%.
For the compound `O=C(NCCN1CCCC1)c1cc(-c2ccc(CN3CCOCC3)cc2)nc2ccc(F)cc12` [DDD107498, reference compound], the IC50 is 1.86 µM in data set [5] (Plasmodium falciparum, DD2) and 0.000257 µM in the data set with Dd2 (wt) (Plasmodium falciparum). Also, the figures for the “Fold shift IC50 rel. Dd2” value (in data set [5] (strain Dd2 DDD107498); in the data set on Dd2 (wt)) were 7247 and 1.0, respectively.
`Cc1cc(Nc2ccc(S(F)(F)(F)(F)F)cc2)n2nc(C(C)(F)F)nc2n1` [DSM265, reference compound]: the IC50 in the data set with Dd2 DSM265 (Pfdhodh) (Plasmodium falciparum) was found to be 0.15 µM; with Dd2 (wt) (Plasmodium falciparum), 0.00623 µM. The figures for the “Fold shift IC50 rel. Dd2” value in the data set with Dd2 DSM265 (Pfdhodh) (strain Dd2 DSM265) and in the data set on Dd2 (wt) were 24 and 1.0, respectively.
Take `CCCCCCCCCCCc1cc(=O)c2c(O)c(O)c(O)cc2o1` [FNDR-10142]: the IC50 in data set [1] (setting [7]) came out at 0.4 µM.
For `CCN(CC)c1ccc(-c2cc(=O)c3cc(C(=O)O)ccc3o2)cc1` [FNDR-11001], the figures for the IC50 in data set [1] and in data set [1] (setting [7]) were 10.2 µM and approximately 10 µM, respectively.
Regarding `O=c1cc(-c2ccc(N3CCOCC3)cc2)oc2cc(O)c(O)c(O)c12` [FNDR-10133], the IC50 in data set [1] (setting [7]) turned out to be 1.29 µM.
Consider `CCCCOc1ccc(C(=O)NCc2cc(=O)c3c(O)c(O)c(O)cc3o2)cc1` [FNDR-10148], for which the concentration for half-maximal inhibition (IC50) in data set [1] worked out at 0.92 µM; in data set [1] (setting [7]) it was 0.9 µM.
Consider `O=C(O)c1ccc2oc(-c3ccc(-c4ccccc4)cc3)cc(=O)c2c1` [FNDR-10137], for which the IC50 in data set [1] (setting [7]) came to 13.2 µM.
Take `COc1cc2[nH]c(C)c(-c3ccc(Oc4ccc(OC(F)(F)F)cc4)cc3)c(=O)c2cc1Cl` [ELQ300, reference compound]: the “Fold shift IC50 rel. Dd2” value in data set [6] (strain Dd2 ELQ300) was determined as 9.7; with Dd2 (wt) it was 1.0. The IC50 in data set [6] (strain Dd2 ELQ300, PfcytB Ile22Leu, read-out: IC50) worked out at 0.0597 µM; with Dd2 (wt), 0.00614 µM.
`O=C(O)c1ccc2oc(-c3ccccc3)cc(=O)c2c1` [FNDR-10130]: the “antimalarial activity (in words)” value in data set [1] was “no activity”. For the same compound, the IC50 in data set [1] (setting [7]) was more than 25 µM.
Turning to `COc1cccc(CCC(=O)NCc2cc(=O)c3c(O)c(O)c(O)cc3o2)c1` [FNDR-10146], the half-maximal inhibitory concentration (IC50) in data set [1] (setting [7]) was 2.93 µM.
On the same count and under the same terms, under `CCCCCCc1ccc(-c2cc(=O)c3cc(C(=O)O)ccc3o2)cc1` [FNDR-11009] stands 10.4 µM.
